Read-outs that look alike come from different tables or passages of the source.
How the values were obtained:
GIST T1-10R cells [1] = assay: Hit validation cell proliferation, 12-point dose-response, GIST T1-10R; assay type: cell-based
GIST 882 cells [2] = assay: Early apoptosis assay; assay type: cell-based; conditions: GIST 882, 1 μM, 24 h, Annexin V
[3] = test system: phospho-ERK1/2 (Thr202/Tyr204); assay: Western blot, phospho-ERK1/2 in GIST cells; assay type: cell-based; conditions: for pERK1/2 level, fold change: GIST T1-10R cells, 6 hours
GIST-T1 cells [4] = assay: Quantitative drug screen, CellTiter-Blue cell viability, GIST-T1; assay type: cell-based; conditions: read-out: IC50 GIST-T1; primary screen, 72 h, 10 μM to […] twofold dilutions; * = IC50 < 0.07 μM and drug showed no dose response
GIST T1-10R cells [5] = assay: Early apoptosis assay; assay type: cell-based; conditions: 1 μM, 24 h, Annexin V
GIST-T1 cells [6] = assay: Hit validation cell proliferation, 12-point dose-response, GIST-T1; assay type: cell-based
phospho-AKT (Ser473) = assay: Western blot, phospho-AKT; assay type: cell-based; conditions: GIST 882 cells, all auranofin treatments, 6 h; site not specified
[7] = test system: reactive oxygen species (ROS); assay: Intracellular ROS activity measurement; assay type: cell-based
[8] = test system: thioredoxin reductase (TrxR); conditions: for TrxR activity: 6 h
Caspase 3/7 = Caspase 3/7 activity assay in GIST cells; assay type: cell-based; conditions: 0.1 and 1 μM, 72 hours
GIST-T1 cells [9] = assay: Early apoptosis assay; assay type: cell-based; conditions: GIST-T1, 1 μM, 24 h, Annexin V
GIST 882 cells [10] = assay: Hit validation cell proliferation, 12-point dose-response, GIST 882; assay type: cell-based; conditions: GIST 882, 1 μM, 72 hour
phospho-c-KIT (Tyr719) = assay: Western blot, phospho-c-KIT in GIST cells; assay type: cell-based
[11] = GIST 882 cells, all auranofin treatments, 6 h

CC(=O)OC[C@H]1O[C@@H]([S-])[C@H](OC(C)=O)[C@@H](OC(C)=O)[C@@H]1OC(C)=O.CCP(CC)CC.[Au+] [Auranofin]
cell viability (GIST T1-10R cells [1]; GIST T1-10R, 1 μM, 72 hour): decrease in cell viability
cell proliferation induced by low-dose treatment, fold (GIST T1-10R cells [1]; GIST T1-10R, low-dose, 72 hour): 1.1–1.2 fold
IC50 (GIST T1-10R cells [1]; read-out: IC50 GIST T1-10R, hit validation, 12-point 20 μM to 1 nM, triplicate, 72 h): 0.02 ± 0.01 µM
fraction of early apoptotic cells, fold increase (GIST 882 cells [2]): ~ 2.3 fold
phosphorylated level of ERK [3, 11]: does not noticeably alter
pERK1/2 level, fold change ([3]; 0.01 μM): ~ 3.0 fold
pERK1/2 level, fold change ([3]; 0.1 μM): ~ 3.6 fold
pERK1/2 level, fold change ([3]; 1 μM): ~ 2.7 fold
pERK1/2 level, fold change ([3]; 010 μM): ~ 2.4 fold
IC50 (GIST-T1 cells [4]): 0.23 µM
fraction of early apoptotic cells, fold increase (GIST T1-10R cells [5]): ~ 2.8 fold
cell viability (GIST-T1 cells [6]; GIST-T1, 1 μM, 72 hour): decrease in cell viability
cell proliferation induced by low-dose treatment, fold (GIST-T1 cells [6]; GIST-T1, low-dose, 72 hour): 1.1–1.2 fold
IC50 (GIST-T1 cells [6]; read-out: IC50 GIST-T1, hit validation, 12-point 20 μM to 1 nM, triplicate, 72 h): 0.25 ± 0.15 µM
phosphorylated level of AKT (phospho-AKT (Ser473)): does not noticeably alter
ROS production, fold change ([7]; GIST 882 cells, 1 and 10 μM, 6 h): 1.5 fold
ROS, fold change vs vehicle-treated cells ([7]; GIST 882 cells, across all auranofin treatments): ~ 1.5 fold
ROS formation, fold change ([7]; GIST T1-10R cells, 1 and 10 μM, 6 h): 2.6 fold
ROS ([7]; all three GIST cell lines, 0.01 and 0.1 μM, 6 h): remained relatively stable
ROS production with longer treatment ([7]; all three GIST cell lines, longer treatment): induces higher production of ROS
TrxR activity ([8]; GIST T1-10R cells, 0.01 and 0.1 μM): significant decrease
TrxR activity ([8]; all three GIST cell lines, 1.0 and 10 μM): dramatically reduces
TrxR enzymatic activity ([8]; exposure up to 24 hours at 1 μM): inhibited
Caspase 3/7 activity (Caspase 3/7): able to increase
fraction of early apoptotic cells, fold increase (GIST-T1 cells [9]): ~ 4 fold
cell viability (GIST 882 cells [10]): decrease in cell viability
phosphorylated level of cKIT (phospho-c-KIT (Tyr719); [11]): does not noticeably alter
p-cKT level, fold change (phospho-c-KIT (Tyr719); GIST-T1 cells, 1 or 10 μM, 6 hours): ~ 0.5 fold
